Patent US11253527B2, “Method and composition for inhibiting virus infection” (priority 2019, dated 2022)

What was measured:
[1] = test system: Oral epithelial cells (OC3); assay: MTT cell viability of mock- or HSV-1-infected oral epithelial cells (OC3); type: cell-based; conditions: OC3 cells, MTT, 19 hours post infection
Protocol: (§1) FIG. 4 provides Experimental conditions for evaluation of the effects of Antrodia camphorata fruit body extracts on oral epithelial cells during HSV-1 infection. Three experimental conditions, including no-treatment, pre-treatment and post-treatment were performed. Oral epithelial cells (OC3) were pre-treated with media only or media containing each Antrodia camphorata extracts for 2 hours, followed by HSV-1 inoculation. Cells were infected with HSV-1 viruses at multiplicity of infection (MOI) of 5 or mock infected for 1 hour at 37° C. for viral entry to occur. Antrodia camphorata extracts were not added during viral inoculation for 1 hour to avoid of its direct effects on virions. Mock- or HSV-1-infected cells were further incubated in the absence or presence of the drug for 19 hours.
The oral epithelial cell line (OC3) was used to determine the possible effects of Antrodia camphorata extracts on oral epithelial cells during HSV-1 infection. Cell monolayers were treated as illustrated in FIG. 4 (please also see details in the Materials and Methods section). Three experimental conditions, including no-treatment, pre-treatment and post-treatment were performed. Whether these Antrodia camphorata extracts have effects before or after viral infection were examined. The effects of Antrodia camphorata extracts on viral propagation (viral yields) in infected oral epithelial cells were examined. At 19-20 h post infection, viral yields in the supernatants were determined using the plaque assay. Viability of treated cells was also determined using the MTT assay for the mitochondrial dehydrogenase activity. Moreover, purified HSV-1 virions were directly treated with Antrodia camphorata extracts to examine whether Antrodia camphorata extracts exert anti-HSV-1 activity directly on virus particles before viral entry. […]
The mitochondrial dehydrogenase activity of treated cells was evaluated using the FBS-free medium containing 1 mg/ml of 3-[4,5-dimethylthiazol-2-yl]-2,5 diphenyltetrazolium bromide (MTT). […]

[2] = test system: HSV-1 virus (KOS strain); assay: HSV-1 viral yields in supernatants of OC3 cells, plaque assay; type: cell-based, Herpes simplex virus type 1; conditions: for viral yields in the supernatants, post-treatment: OC3 cells post-treated after HSV-1 infection (MOI 5), 19 hours; for viral yield reduced to: media control = 100%; for viral yields in the supernatants, pre-treatment: OC3 cells pre-treated 2 hours before HSV-1 infection (MOI 5)
Protocol: as §1
(§2) The oral epithelial cell line (OC3) was used to determine the possible effects of Antrodia camphorata extracts on oral epithelial cells during HSV-1 infection. Cell monolayers were treated as illustrated in FIG. 4 (please also see details in the Materials and Methods section). Three experimental conditions, including no-treatment, pre-treatment and post-treatment were performed. Whether these Antrodia camphorata extracts have effects before or after viral infection were examined. The effects of Antrodia camphorata extracts on viral propagation (viral yields) in infected oral epithelial cells were examined. At 19-20 h post infection, viral yields in the supernatants were determined using the plaque assay. Viability of treated cells was also determined using the MTT assay for the mitochondrial dehydrogenase activity. Moreover, purified HSV-1 virions were directly treated with Antrodia camphorata extracts to examine whether Antrodia camphorata extracts exert anti-HSV-1 activity directly on virus particles before viral entry.
HSV-1 virus (KOS strain) from the extra-cellular fluid of infected Vero cells was purified using sucrose-gradient. Purified viruses were stored frozen in small aliquots. Purified viruses were titered using the plaque assay.
Oral epithelial cells (OC3 cells) were infected with HSV-1 at multiplicity of infection (MOI) of 5 or mock infected for 1 h at 37° C. for viral entry to occur. Unbound viruses were removed. Infected cells were then overlaid with appropriate media and incubated at 37° C. The Antrodia camphorata fruit body extracts used were A2 (Antrodia camphorata extracts), A3 (dehydrosulphurenic acid), A4 (antcin K), A5 (versisponic acid), and A6 (dehydroeburicoic acid). For the effects of Antrodia camphorata fruit body extracts, oral cells were treated in three different experimental conditions (FIG. 1): (1) no treatment, (2) pre-treatment with each Antrodia camphorata fruit body extracts before infection and (3) post-treatment with each Antrodia camphorata fruit body extracts after infection. Purified HSV-1 virions were also incubated directly with media only or media containing Antrodia camphorata fruit body extracts. The viral infectivity of treated virions was then examined using the plaque assay.
Viral titers in the supernatants after infection were determined using the plaque assay. Cells were grown to confluence and infected with tenfold serial dilution of the samples. Cells were then overlaid with medium containing 3% carboxymethylcellulose to prevent the formation of secondary plaques. Cells were incubated until well-defined clear plaques were formed. Cells were fixed with 3.7% formaldehyde and stained with crystal violet. Plaques were observed and counted under an inverted microscope. The viral yield of the media-pretreated HSV-1 infected control was considered to be 100%.

[3] = test system: HSV-1 virions; assay: Direct effect on infectivity of purified HSV-1 virions, plaque assay; type: cell-based, Herpes simplex virus type 1; conditions: purified virions incubated directly with drug 1 hour at 37° C., dose-dependent
Protocol: Purified HSV-1 was incubated directly with media containing various concentrations of each Antrodia camphorata extracts for 1 hour at 37° C. The viral titers were then examined in oral epithelial cells (OC3) using the plaque assay. The results shown are the mean±SEM from at least three independent experiments. Statistical differences are shown by different lowercase letters (analysis of variance, Tukey, α=0.05).
as §2
Oral epithelial cells (OC3 cells) were infected with HSV-1 at multiplicity of infection (MOI) of 5 or mock infected for 1 h at 37° C. for viral entry to occur. Unbound viruses were removed. Infected cells were then overlaid with appropriate media and incubated at 37° C. The Antrodia camphorata fruit body extracts used were A2 (Antrodia camphorata extracts), A3 (dehydrosulphurenic acid), A4 (antcin K), A5 (versisponic acid), and A6 (dehydroeburicoic acid). […]
Viral titers in the supernatants after infection were determined using the plaque assay. […] Plaques were observed and counted under an inverted microscope. […]

[4] = test system: HuS-E/2 immortalized human primary hepatocytes cells; assay: MTT cell viability, HuS-E/2 cells; conditions: 48 h, 20 μg/ml
[5] = test system: HBV; assay: HBV entry/infection of DMSO-differentiated HuS-E/2 cells (HBsAg/HBeAg ELISA, HBV mRNA RT-PCR); type: cell-based, Hepatitis B virus; conditions: for levels of HBV mRNA: HuS-E/2 cells, drug present during infection; for inhibiting the entry of HBV into HuS-E/2 cells: by HBsAg, HBeAg and HBV mRNA expression levels
Protocol: (§3) DMSO-differentiated HuS-E/2 cells were exposed to HBV at a MOI of 10 for 20 h in the presence of the indicated concentration of Antrodia camphorata fruit body extracts, then the HBV and drugs were removed and the cells incubated for 2 days, when HBsAg secreted into the culture medium was measured by ELISA and expressed as a percentage of the value for the non-drug-treated controls. The results are the mean±SD for three independent experiments. *, P<0.05; **, P<0.01; ***, P<0.001.
as §3, with “HBeAg” for “HBsAg”
DMSO-differentiated HuS-E/2 cells were exposed to HBV at a MOI of 10 for 20 h in the presence of the indicated concentration of Antrodia camphorata fruit body extracts, then the HBV and drugs were removed and the cells incubated for 2 days. RNA was then extracted from cells and subjected to RT-PCR to measure HBV mRNA levels. The results expressed were as a percentage of the value for the non-drug-treated cells. Control PCRs were performed for endogenous GAPDH mRNA as the loading control. The results are the mean±SD for three independent experiments. *, P<0.05; **, P<0.01; ***, P<0.001.
HuS-E/2 cells that retains primary hepatocyte characteristics even after prolonged culture are utilized for HBV infection. For HBV infection, HuS-E/2 cells were differentiated with 2% DMSO for 7 days, and virus particles were collected to infect and replicate in HuS-E/2 cells as described in our previous study. These cells are useful to assay infectivity of HBV strains, and screening of anti-HBV agents.
Total DNA is extracted with a Genomic DNA isolation kit (Nexttec Biotechnologie, Germany). Total RNA is isolated from cultured cells using TRIzol® reagent (Invitrogen). […] The results are analyzed with the iCycler iQ real-time PCR detection system (Bio-Rad). […]
To evaluate the effects of Antrodia camphorata fruit body extracts on HBV infectivity and replication, HuS-E/2 cells were infected with ayw subtype HBV derived from HepG2.2.15 cells. The different Antrodia camphorata fruit body extracts were added to the medium during infection with HBV for […], then the infected cells were washed and incubated in fresh medium for 48 hours, when HBsAg and HBeAg in culture medium were detected by ELISA and HBV mRNA was detected by real-time PCR as an index of efficiency of HBV infection.

[6] = test system: HepG2.2.15 cells; assay: MTT cell viability, HepG2.2.15 cells; conditions: 48 h, 20 μg/ml
[7] = OC3 cells post-treated with 2.5 μg/ml after HSV-1 infection
[8] = OC3 cells pre-treated with 10 μg/ml for 2 hours before HSV-1 infection

C=C(CC[C@H](C(=O)O)[C@H]1C[C@H](O)[C@@]2(C)C3=CC[C@H]4C(C)(C)[C@@H](O)CC[C@]4(C)C3=CC[C@]12C)C(C)C [A3, dehydrosulphurenic acid]
viability of mock-infected cells or HSV-1 infected cells [1]: not affected evidently | viral yields in the supernatants, post-treatment [2]: did not reach statistical difference | viral yield reduced to [2, 7]: 65% | viral yields in the supernatants, pre-treatment [2]: did not reach statistical difference | viral yield reduced to [2, 8]: 57%

C=C(CC[C@@H](C(=O)O)[C@H]1CC[C@@]2(C)C3=CC[C@H]4C(C)(C)[C@@H](O)CC[C@]4(C)C3=CC[C@]12C)C(C)C [A6, dehydroeburicoic acid]
viral infectivity of treated HSV-1 virions [3]: statistically significantly inhibited | viral yields in the supernatants, post-treatment [2]: significantly reduced | viral yield reduced to [2, 7]: 63% | viral yields in the supernatants, pre-treatment [2]: significantly reduced | viral yield reduced to [2, 8]: 37% | toxic effect (MTT cell viability) [4]: no toxic effect | levels of HBV mRNA [5]: decrease | inhibiting the entry of HBV into HuS-E/2 cells [5]: much more effective

C=C(CC[C@@H](C(=O)O)[C@H]1C[C@H](OC(C)=O)[C@@]2(C)C3=C(CC[C@]12C)[C@@]1(C)CC[C@H](O)C(C)(C)[C@@H]1CC3)C(C)C [A5, versisponic acid]
toxic effect (MTT cell viability) [6]: little or no toxic effect | viral infectivity of treated HSV-1 virions [3]: statistically significantly inhibited | viability of mock-infected cells or HSV-1 infected cells [1]: not affected evidently | viral yields in the supernatants, post-treatment [2]: significantly reduced | viral yields in the supernatants, pre-treatment [2]: significantly reduced | viral yield reduced to ([2]; OC3 cells pre-treated with 25 μg/ml for 2 hours before HSV-1 infection): 48% | viral yield reduced to ([2]; infected OC3 cells post-treated with 12.5 μg/ml): 57% | toxic effect (MTT cell viability) [4]: no toxic effect | levels of HBV mRNA [5]: decrease | inhibiting the entry of HBV into HuS-E/2 cells [5]: much more effective
